Experimental data as given in article PMC3927586, “Protein kinase C-delta inactivation inhibits the proliferation and survival of cancer stem cells in culture and in vivo” (BMC Cancer, 2014).
Several values for one entry are separate records, joined by “and”; a condition that tells them apart may be missing. Equal entries are not always repeated. Where two headings read alike, the source gives them in different places.

Experiments:
[1] = target: T1, recombinant PKCδ (Homo sapiens, UniProt Q05655); assay: PKC kinase activity assay (Z-lyte), PKCδ; format: biochemical; settings: for PKCδ/PKCα Selectivity ratio: PKCδ versus PKCα in vitro
T1 construct: purchased Invitrogen
T1 sequence (Q05655 whole entry): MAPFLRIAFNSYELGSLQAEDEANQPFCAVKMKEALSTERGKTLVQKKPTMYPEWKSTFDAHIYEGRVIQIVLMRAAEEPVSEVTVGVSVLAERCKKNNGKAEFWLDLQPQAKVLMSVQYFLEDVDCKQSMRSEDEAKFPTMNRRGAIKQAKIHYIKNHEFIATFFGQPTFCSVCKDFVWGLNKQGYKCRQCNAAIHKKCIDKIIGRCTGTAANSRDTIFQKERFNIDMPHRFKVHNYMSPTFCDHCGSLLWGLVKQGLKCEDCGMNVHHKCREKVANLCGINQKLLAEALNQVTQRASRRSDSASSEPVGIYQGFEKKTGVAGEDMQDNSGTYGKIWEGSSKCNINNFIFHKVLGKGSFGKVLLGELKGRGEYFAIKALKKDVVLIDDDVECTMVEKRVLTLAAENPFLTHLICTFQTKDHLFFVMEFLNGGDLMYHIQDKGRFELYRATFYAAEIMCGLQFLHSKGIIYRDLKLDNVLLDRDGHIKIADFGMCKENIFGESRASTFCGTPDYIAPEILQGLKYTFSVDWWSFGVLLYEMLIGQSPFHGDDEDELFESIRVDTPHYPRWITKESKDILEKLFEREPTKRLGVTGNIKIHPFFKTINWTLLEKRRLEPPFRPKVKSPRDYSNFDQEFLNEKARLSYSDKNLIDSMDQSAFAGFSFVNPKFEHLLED
Description: Assays were carried out using recombinant PKCδ or PKCα, (Invitrogen) and the Z-lyte Kinase Assays (Invitrogen) with a “PKC-kinase-specific” peptide substrate. FRET interactions produce a change in fluorescence (ex455/ex520) upon phosphorylation. The kit was used according to the manufacturer’s instructions.

[2] = test system: SBcl2; assay: Tumor spheroid growth, SBcl2 melanoma; format: cell-based, human; settings: p < 0.001
Description: (§1) Tumor self-renewing and anchorage-independent spheroids were obtained by culturing breast cancer cells MCF7, Hs587T and MDA231; melanoma cells SBcl2 and FM6; human breast cancer stem cells and pancreatic cancer stem cells in stem cell-selective conditions according to the manufacturer’s instructions (StemCell Technologies, Tukwila, WA). Briefly, cancer and cancer stem cells were propagated in 6-well ultra-low adherent plates (Corning) in Complete MammoCult Medium (Human) by adding 50 mL of MammoCult Proliferation Supplements to 450 mL of MammoCult Basal Medium (StemCell Technologies). The following were added to obtain Complete MammoCult Medium: 4 ug/mL Heparin (StemCell Technologies), 0.48 μg/mL hydrocortisone (StemCell Technologies), 200 U penicillin/ml; and 200 μg streptomycin/ml (Invitrogen).

[3] = test system: MCF 10C cells; assay: Cell proliferation (MTT) of transformed breast epithelial cells; format: cell-based, human; settings: for IC50: Homo sapiens, Epithelial cell, 72 hr, read-out: IC50 for the MCF 10C derivative; for concentration with significant effect on MCF 10C cells: as early as 24 hr
Description: Cell proliferation was assessed using an MTT [3-(4,5-dimethylthiazol-2-yl)-2,5-diphenyltetrazolium bromide] assay (Roche, Mannheim, Germany). The number of viable cells growing in a single well on a 96-well microtiter plate was estimated by adding 10 μl of MTT solution (5 mg/ml in phosphate-buffered saline [PBS]). After 4 h of incubation at 37°C, the stain was diluted with 100 μl of dimethyl sulfoxide. The optical densities were quantified at a test wavelength of 570 nm and a reference wavelength of 690 nm on a multiwell spectrophotometer. In some assays, MTS was used as substrate (Promega, Madison, WI), and the absorbance of the product was monitored at 490 nm. Cell enumeration was carried out using a hemocytometer, and viable cells identified by trypan blue exclusion.
Figure 5 Effects of PKCδ inhibitors on growth and spheroid formation in non-transformed and transformed human breast epithelial cells. MCF 10A cells and cells from the derived tumorigenic line MCF 10C (also called M3), were grown to 80% confluence in 96-well plates and then exposed to rottlerin at concentrations ranging from 1 to 20 μM (A) or to BJE6-106 at concentrations ranging from 0.1 to 20 μM (B). The corresponding equivalent volume of solvent (DMSO) was used as a vehicle control (Vehicle). After 24, 48 and 72 hr of exposure, cell mass was evaluated by MTT assay. Control (vehicle) values were normalized to 100%. Error bars represent SEM. p values for comparison between vehicle and PKCδ inhibitors on MCF 10A cell number only reached significance (p < 0.05) at 48 hr at 20 μM for rottlerin, and at 1 μM for BJE6-106. In contrast, significant effects of the inhibitors on the MCF 10C cells were observed as early as 24 hr for rottlerin (at 5 μM) and for BJE6-106 (at 0.1 μM). (C) MCF 10A and MCF 10C cells were plated at 10,000 cells per well in tumor spheroid media, and spheroid formation was assessed at days 10 and 21. Representative photographs are shown. (D) MCF 10C cells were plated at 10,000 cells per well in tumor spheroid media, in the presence of rottlerin (5 μM), or BJE6-106 (1 μM or 5 μM), or DMSO vehicle (Control). Tumor spheroids were enumerated at 10 days. Representative photographs are shown. (E) Spheroid numbers were normalized to the number of spheroids in the control cultures (assigned an arbitrary value of 100%) and plotted. Error bars represent SEM. p values for comparison between vehicle and rottlerin or BJE6-106 effects on spheroid number were significant (p < 0.001).

[4] = test system: MCF 10C cells; assay: Tumor spheroid formation, MCF 10C; format: cell-based, human; settings: spheroids enumerated at 10 days
Description: as §1
Figure 5 Effects of PKCδ inhibitors on growth and spheroid formation in non-transformed and transformed human breast epithelial cells. […] After 24, 48 and 72 hr of exposure, cell mass was evaluated by MTT assay. […] (C) MCF 10A and MCF 10C cells were plated at 10,000 cells per well in tumor spheroid media, and spheroid formation was assessed at days 10 and 21. […]

[5] = in vitro kinase assay, read-out: PKCδ IC50

| Compound | IC50 ([1]; PKCδ IC50, in vitro kinase assay) | IC50 [1, 5] | inhibition at 10 µM ([2]; Homo sapiens, SBcl2, rottlerin at 10 μM) | IC50 [3] | concentration with significant effect on MCF 10C cells [3] | effect on growth of MCF 10C spheroids ([4]; rottlerin at 10 μM) | PKCδ/PKCα Selectivity ratio [1] | PKCδ/PKCα Selectivity ratio ([1]; listed as 3) | inhibition of tumor spheroid growth, SBcl2 ([2]; BJE6-106 at 0.5-1.0 μM) | effect on growth of MCF 10C spheroids ([4]; BJE6-106 at 1 μM) |
| --- | --- | --- | --- | --- | --- | --- | --- | --- | --- | --- |
| CC(=O)c1c(O)c(C)c(O)c(Cc2c(O)c3c(c(C(=O)/C=C/c4ccccc4)c2O)OC(C)(C)C=C3)c1O [rottlerin, Rottlerin, reference compound] | ~5000 nM | 3000 nM | > 99.5% | ~1000 nM | 5 µM | efficiently inhibited |  |  |  |  |
| CC1(C)C=Cc2cc(CCn3c4ccccc4c4ccccc43)cc(C=O)c2O1 [BJE6-106, 6-(2-(9H-carbazol-9-yl)ethyl)-2,2-dimethyl-2H-chromene-8-carbaldehyde] |  | ~50 nM and 50 nM |  | ~100 nM | 0.1 µM |  | approximately 1000 fold | 1000-fold | > 99.5% | efficiently inhibited |
